Measured values reported in the NIST ThermoML archive (doi:10.1016/j.jct.2018.10.015).

Assay: xn = mol fraction of the nth substance listed
Details: 101.3 kPa, Liquid; for viscosity: Concentric cylinders viscometry; for mass density: Vibrating tube method

CCn1cc[n+](C)c1C.O=S(=O)([N-]S(=O)(=O)C(F)(F)F)C(F)(F)F + CCOC(=O)OCC
Details | mass density [kg/m3] | viscosity [mPa·s]
293.15 K, x1 = 0.1731 | 1150.1 | 3.168
293.15 K, x1 = 0.302 | 1242.2 | 6.382
293.15 K, x1 = 0.4028 | 1298.8 | 10.53
293.15 K, x1 = 0.4991 | 1343.7 | 16.14
293.15 K, x1 = 0.6093 | 1387 | 25.06
293.15 K, x1 = 0.7039 | 1418.8 | 35.42
293.15 K, x1 = 0.7951 | 1445.6 | 48.11
293.15 K, x1 = 0.8901 | 1470.6 | 64.72
293.15 K, x1 = 1 | 1495.8 | 89.88
298.15 K, x1 = 0.1731 | 1144.8 | 2.871
298.15 K, x1 = 0.302 | 1237.1 | 5.646
298.15 K, x1 = 0.4028 | 1293.7 | 9.149
298.15 K, x1 = 0.4991 | 1338.7 | 13.79
298.15 K, x1 = 0.6093 | 1382 | 21.02
298.15 K, x1 = 0.7039 | 1413.9 | 29.27
298.15 K, x1 = 0.7951 | 1440.8 | 39.24
298.15 K, x1 = 0.8901 | 1465.8 | 52.12
298.15 K, x1 = 1 | 1491 | 71.34
303.15 K, x1 = 0.1731 | 1139.5 | 2.615
303.15 K, x1 = 0.302 | 1232 | 5.032
303.15 K, x1 = 0.4028 | 1288.6 | 8.021
303.15 K, x1 = 0.4991 | 1333.7 | 11.9
303.15 K, x1 = 0.6093 | 1377.1 | 17.84
303.15 K, x1 = 0.7039 | 1409 | 24.52
303.15 K, x1 = 0.7951 | 1435.9 | 32.49
303.15 K, x1 = 0.8901 | 1461 | 42.65
303.15 K, x1 = 1 | 1486.3 | 57.64
308.15 K, x1 = 0.1731 | 1134.2 | 2.394
308.15 K, x1 = 0.302 | 1226.9 | 4.515
308.15 K, x1 = 0.4028 | 1283.6 | 7.089
308.15 K, x1 = 0.4991 | 1328.7 | 10.37
308.15 K, x1 = 0.6093 | 1372.2 | 15.31
308.15 K, x1 = 0.7039 | 1404.1 | 20.78
308.15 K, x1 = 0.7951 | 1431.1 | 27.23
308.15 K, x1 = 0.8901 | 1456.2 | 35.38
308.15 K, x1 = 1 | 1481.5 | 47.26
313.15 K, x1 = 0.1731 | 1128.9 | 2.201
313.15 K, x1 = 0.302 | 1221.7 | 4.076
313.15 K, x1 = 0.4028 | 1278.5 | 6.312
313.15 K, x1 = 0.4991 | 1323.7 | 9.113
313.15 K, x1 = 0.6093 | 1367.3 | 13.27
313.15 K, x1 = 0.7039 | 1399.3 | 17.81
313.15 K, x1 = 0.7951 | 1426.2 | 23.1
313.15 K, x1 = 0.8901 | 1451.4 | 29.72
313.15 K, x1 = 1 | 1476.7 | 39.24
318.15 K, x1 = 0.1731 | 1123.6 | 2.032
318.15 K, x1 = 0.302 | 1216.5 | 3.7
318.15 K, x1 = 0.4028 | 1273.5 | 5.657
318.15 K, x1 = 0.4991 | 1318.8 | 8.07
318.15 K, x1 = 0.6093 | 1362.4 | 11.6
318.15 K, x1 = 0.7039 | 1394.4 | 15.41
318.15 K, x1 = 0.7951 | 1421.4 | 19.8
318.15 K, x1 = 0.8901 | 1446.6 | 25.24
318.15 K, x1 = 1 | 1472 | 33
323.15 K, x1 = 0.1731 | 1118.3 | 1.882
323.15 K, x1 = 0.302 | 1211.3 | 3.375
323.15 K, x1 = 0.4028 | 1268.4 | 5.102
323.15 K, x1 = 0.4991 | 1313.8 | 7.196
323.15 K, x1 = 0.6093 | 1357.5 | 10.22
323.15 K, x1 = 0.7039 | 1389.6 | 13.45
323.15 K, x1 = 0.7951 | 1416.6 | 17.14
323.15 K, x1 = 0.8901 | 1441.8 | 21.66
323.15 K, x1 = 1 | 1467.2 | 28.05
328.15 K, x1 = 0.1731 | 1112.9 | 1.75
328.15 K, x1 = 0.302 | 1206.2 | 3.098
328.15 K, x1 = 0.4028 | 1263.4 | 4.633
328.15 K, x1 = 0.4991 | 1308.9 | 6.468
328.15 K, x1 = 0.6093 | 1352.5 | 9.095
328.15 K, x1 = 0.7039 | 1384.7 | 11.86
328.15 K, x1 = 0.7951 | 1411.8 | 15
328.15 K, x1 = 0.8901 | 1437 | 18.81
328.15 K, x1 = 1 | 1462.4 | 24.16

CCCCn1cc[n+](C)c1C.O=S(=O)([N-]S(=O)(=O)C(F)(F)F)C(F)(F)F + COC(=O)OC
Details | mass density [kg/m3] | viscosity [mPa·s]
293.15 K, x1 = 0.0976 | 1176 | 1.828
293.15 K, x1 = 0.1935 | 1242.1 | 3.518
293.15 K, x1 = 0.299 | 1291.6 | 6.864
293.15 K, x1 = 0.4011 | 1325.8 | 12.11
293.15 K, x1 = 0.4954 | 1350.1 | 19.5
293.15 K, x1 = 0.5974 | 1371 | 31.06
293.15 K, x1 = 0.6988 | 1387.8 | 47.37
293.15 K, x1 = 0.7987 | 1401.5 | 68.9
293.15 K, x1 = 0.9 | 1413.2 | 97.5
293.15 K, x1 = 1 | 1423.1 | 133.6
298.15 K, x1 = 0.0976 | 1170.1 | 1.686
298.15 K, x1 = 0.1935 | 1236.6 | 3.172
298.15 K, x1 = 0.299 | 1286.4 | 6.035
298.15 K, x1 = 0.4011 | 1320.8 | 10.38
298.15 K, x1 = 0.4954 | 1345.2 | 16.34
298.15 K, x1 = 0.5974 | 1366.2 | 25.45
298.15 K, x1 = 0.6988 | 1383 | 38.01
298.15 K, x1 = 0.7987 | 1396.8 | 54.23
298.15 K, x1 = 0.9 | 1408.5 | 75.54
298.15 K, x1 = 1 | 1418.5 | 101.82
303.15 K, x1 = 0.0976 | 1164.2 | 1.561
303.15 K, x1 = 0.1935 | 1231.1 | 2.876
303.15 K, x1 = 0.299 | 1281.2 | 5.352
303.15 K, x1 = 0.4011 | 1315.7 | 8.997
303.15 K, x1 = 0.4954 | 1340.2 | 13.88
303.15 K, x1 = 0.5974 | 1361.4 | 21.16
303.15 K, x1 = 0.6988 | 1378.3 | 31.01
303.15 K, x1 = 0.7987 | 1392.1 | 43.5
303.15 K, x1 = 0.9 | 1403.9 | 59.63
303.15 K, x1 = 1 | 1413.9 | 79.23
308.15 K, x1 = 0.0976 | 1158.2 | 1.445
308.15 K, x1 = 0.1935 | 1225.6 | 2.623
308.15 K, x1 = 0.299 | 1275.9 | 4.784
308.15 K, x1 = 0.4011 | 1310.7 | 7.873
308.15 K, x1 = 0.4954 | 1335.3 | 11.92
308.15 K, x1 = 0.5974 | 1356.5 | 17.83
308.15 K, x1 = 0.6988 | 1373.5 | 25.68
308.15 K, x1 = 0.7987 | 1387.4 | 35.46
308.15 K, x1 = 0.9 | 1399.2 | 47.91
308.15 K, x1 = 1 | 1409.3 | 62.74
313.15 K, x1 = 0.0976 | 1152.2 | 1.343
313.15 K, x1 = 0.1935 | 1220.1 | 2.405
313.15 K, x1 = 0.299 | 1270.7 | 4.306
313.15 K, x1 = 0.4011 | 1305.6 | 6.95
313.15 K, x1 = 0.4954 | 1330.4 | 10.34
313.15 K, x1 = 0.5974 | 1351.7 | 15.2
313.15 K, x1 = 0.6988 | 1368.8 | 21.55
313.15 K, x1 = 0.7987 | 1382.7 | 29.34
313.15 K, x1 = 0.9 | 1394.6 | 39.06
313.15 K, x1 = 1 | 1404.8 | 50.56
318.15 K, x1 = 0.0976 | 1146.2 | 1.25
318.15 K, x1 = 0.1935 | 1214.5 | 2.214
318.15 K, x1 = 0.299 | 1265.5 | 3.9
318.15 K, x1 = 0.4011 | 1300.6 | 6.184
318.15 K, x1 = 0.4954 | 1325.5 | 9.06
318.15 K, x1 = 0.5974 | 1346.9 | 13.1
318.15 K, x1 = 0.6988 | 1364 | 18.3
318.15 K, x1 = 0.7987 | 1378.1 | 24.58
318.15 K, x1 = 0.9 | 1390 | 32.32
318.15 K, x1 = 1 | 1400.2 | 41.38
323.15 K, x1 = 0.0976 | 1140.2 | 1.165
323.15 K, x1 = 0.1935 | 1209 | 2.046
323.15 K, x1 = 0.299 | 1260.3 | 3.553
323.15 K, x1 = 0.4011 | 1295.6 | 5.543
323.15 K, x1 = 0.4954 | 1320.6 | 8
323.15 K, x1 = 0.5974 | 1342.1 | 11.4
323.15 K, x1 = 0.6988 | 1359.3 | 15.71
323.15 K, x1 = 0.7987 | 1373.4 | 20.85
323.15 K, x1 = 0.9 | 1385.4 | 27.09
323.15 K, x1 = 1 | 1395.6 | 34.32
328.15 K, x1 = 0.0976 | 1133.9 | 1.091
328.15 K, x1 = 0.1935 | 1203.6 | 1.904
328.15 K, x1 = 0.299 | 1255.1 | 3.258
328.15 K, x1 = 0.4011 | 1290.5 | 5.017
328.15 K, x1 = 0.4954 | 1315.6 | 7.129
328.15 K, x1 = 0.5974 | 1337.2 | 10.03
328.15 K, x1 = 0.6988 | 1354.6 | 13.64
328.15 K, x1 = 0.7987 | 1368.7 | 17.91
328.15 K, x1 = 0.9 | 1380.8 | 23.04
328.15 K, x1 = 1 | 1391 | 28.91
